{"source": "patent US7608126B1", "about": "“Method for horticulture plant rejuvenation” (priority 2006, dated 2009)", "origin": "cited, not measured here", "data": [{"smiles": "C[C@]12CC[C@H](O)CC1=CC[C@@H]1[C@@H]2CC[C@]2(C)C(=O)CC[C@@H]12", "note": "[DHEA, dehydroepiandrosterone]", "values": [{"measurement": "solubility in water", "result": "not very soluble in water"}]}]}
